Columns and labels:
any other known protease = conditions: Meng et al., 1999; cited from earlier work
[1] = tested on: Mycobacterium tuberculosis; experiment: Survival assays of Mycobacterium tuberculosis on agar plates after nitrite exposure; type: cell-based; conditions: plating on agar after 6 days of exposure; present-tense example without data
proteasome = proteasome (Homo sapiens, UniProt Q99436); experiment: Trypsin-like inhibitory activity of the proteasome (summary); type: biochemical; conditions: proteasome source not stated
[2] = biological target: T1, proteasome chymotrypsin-like activity in Packed Whole Blood Lysate (Mus musculus, UniProt O55234); experiment: Whole blood proteasome activity (PWBL assay) after dosing of mice; type: in vivo; conditions: male Swiss-Webster mice
T1 construct: The supernatant (Packed Whole Blood Lysate, PWBL) was transferred to a fresh tube; from tissue; host or cells: packed whole blood cells of Swiss-Webster mice, hypotonic lysate
T1 sequence (O55234 60-264): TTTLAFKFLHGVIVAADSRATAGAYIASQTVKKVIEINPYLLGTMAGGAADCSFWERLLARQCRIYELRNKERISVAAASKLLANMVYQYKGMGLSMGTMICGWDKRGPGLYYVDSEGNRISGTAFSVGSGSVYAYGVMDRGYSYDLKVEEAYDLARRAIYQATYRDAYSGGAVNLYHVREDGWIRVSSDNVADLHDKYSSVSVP
Experimental: In brief, frozen whole blood samples were thawed on ice for one hour, and resuspended in 700 μL of ice cold 5 mM EDTA, pH 8.0 in order to lyse the cells by hypotonic shock. This represents approximately 2-3 times the volume of the packed whole blood cells. Lysis was allowed to proceed for one hour, and the cellular debris was removed by centrifugation at 14,000×g for 10 minutes. The supernatant (Packed Whole Blood Lysate, PWBL) was transferred to a fresh tube, and the pellet discarded. Protein concentration of the PWBL was determined by BCA assay (Pierce) using BSA as a standard.
Proteasome activity was determined by measuring the hydrolysis of a fluorogenic substrate specific for the chymotrypsin-like activity of proteasomes (suc-LLVY-AMC, Bachem Cat. 1-1395). […] The reactions were initiated by the addition of 10 μL of 0.4 mM suc-LLVY-AMC (prepared by diluting a 10 mM solution of the peptide in DMSO 1:25 with assay buffer), and incubated in a fluorometer (Labsystems Fluoroskan) at 37° C. Hydrolysis of the substrate results in the release of free AMC, which was measured fluorometrically by using λex=390 nm and λem=460 nm. The rate of hydrolysis in this system is linear for at least one hour. The hydrolysis rate of each sample is then normalized to relative fluorescent units per milligram of protein (RFU/mg).
The vehicle control consisted of 2% DMSO in 10% solutol. […]

[3] = tested on: NF-κB/IκB signaling pathway; experiment: TNF-α stimulated HEK293 cells, IκBα phosphorylation and degradation; type: cell-based, human; conditions: HEK293 cells pre-treated 1 hour, then TNF-α stimulation
Description: Treatment of HEK293 cells (human embryonic kidney) with Tumor Necrosis Factor-alpha (TNF-α) induces phosphorylation and proteasome-mediated degradation of IκBα followed by NF-κB activation.

[4] = Maximum tolerated dose determination, intravenous, female BALB/c mice; type: in vivo
Description: In vivo studies were designed to determine the MTD of Salinosporamide A when administered intravenously to female BALB/c mice.

NF-κB = experiment: NF-κB/Luc 293 luciferase reporter assay with TNF-α stimulation; type: cell-based, human; conditions: NF-κB/Luc 293 cells, pretreatment before TNF-α
Description: (§1) Furthermore, a stable HEK293 clone (NF-κB/Luc 293) was generated carrying a luciferase reporter gene under the regulation of 5×NF-κB binding sites.

IκBα, p21 and p27 = experiment: Western blot analyses in NF-κB/Luc 293 cells; type: cell-based, human
Description: as §1

[5] = NF-κB/Luc 293 cells, Western blot

Row | SMILES | inhibitory activity towards other proteases (any other known protease) | antimycobacterial effect of nitrite [1] | trypsin-like inhibitory activity (proteasome) | proteasomal activity in PWBL ([2]; blood 90 min after administration, dose dependent (FIG. 4)) | activity upon oral administration (PWBL proteasome inhibition) ([2]; oral dosing) | phosphorylated IκBα level [3] | behavioral changes ([4]; during the course of the experiment) | well tolerated dose ([4]; i.v. daily for five consecutive days (qdx5)) | tolerated dose ([4]; single intravenous dose (qdx1)) | luciferase activity (NF-κB) | levels of cell cycle regulatory proteins p21 and p27 (IκBα, p21 and p27) | degradation of total IκBα (IκBα, p21 and p27; [5]) | phosphorylated-IκBα level (IκBα, p21 and p27; [5]) | EC50 (In vitro cytotoxicity)
1 | CC[C@H](C)[C@H](NC(=O)[C@H]([C@@H](C)CC)N(C)C(C)=O)C(=O)N[C@H](C(=O)N[C@@H](CC(C)C)C(=O)[C@@]1(C)CO1)[C@@H](C)O [Epoxomicin] | no inhibitory activity towards any other known protease |  |  |  |  |  |  |  |  |  |  |  |  | 
2 | C[C@@]12OC(=O)[C@]1([C@@H](O)[C@@H]1C=CCCC1)NC(=O)[C@@H]2CCCl [Salinosporamide A] |  | able to augment the antimycobacterial effect of nitrite | ~10 nM | profound decrease in proteasomal activity in PWBL | active upon oral administration | promoted the accumulation of phosphorylated IκBα | No behavioral changes were noted | up to 0.1 mg/kg | up to 0.25 mg/kg | decreases activity | increase the levels | decreased the degradation of total IκBα | promoted the accumulation of phosphorylated-IκBα | 10 to 200 nM

Reference: patent US20120264678A1, “METHODS OF USING [3.2.0] HETEROCYCLIC COMPOUNDS AND ANALOGS THEREOF FOR TREATING INFECTIOUS DISEASES” (priority 2007, published 2012)
